Results from patent US8202865B2, “Oxadiazole derivatives” (Merck Serono SA, priority 2007, dated 2012).
Counter-ions that a name gives are not always drawn.

Target: T1, S1P1 (Homo sapiens, UniProt P21453)
T1 construct: expressed in transfected cells; host or cells: CHO cells (membranes)
Assay: 35S-GTPγS binding, S1P1 membranes
Format: biochemical
Conditions: membranes from CHO cells expressing S1P1; 60 min 30° C.
Description: Receptor binding assay: Membranes were prepared from CHO cells expressing S1P1 or S1P3 for use in ligand and […] binding studies. Cells were suspended in 50 mM TRIS, pH 7.4, 2 mM EDTA, 250 mM Sucrose (buffer A) and 1× Complete protease inhibitor cocktail (Roche), and disrupted at 4° C. by N2 decompression using a cell disruption bomb (Parr Instrument). Following centrifugation at 1000 RPM for 10 min at 4° C., the supernatant was suspended in buffer A and centrifuged again at 19000 RPM for 60 min at 4° C. The pellet was then suspended in 10 mM HEPES, pH 7.4, 1 mM EDTA, 250 mM Sucrose (Buffer B), and 1× Complete EDTA-free protease inhibitor cocktail and homogenized using a potter. Membranes were flash frozen in liquid N2 and stored at −80° C. [33P]sphingosine 1-phosphate (3000 Ci/mmol; American Radiolabeled Chemicals, Inc.) was added to test compounds in DMSO. Membranes and WGA SPA beads (GE Healthcare) were added to give a final volume of 100 μl in 96-well plates with assay concentrations of 25 pM or 10 pM [33P]sphingosine 1-phosphate (respectively for S1P1 or S1P3), 50 mM HEPES, pH 7.5, 5 mM MgCl2, 100 mM NaCl, 0.4% fatty acid-free BSA, 1-5 μg/well of proteins and 100 μg/well of WGA SPA beads. Binding was performed for 60 min at RT on a shaker and bound radioactivity was measured on a PerkinElmer 1450 MicroBeta counter. Specific binding was calculated by subtracting remaining radioactivity in the presence of 1000-fold excess of unlabeled S1P. Binding data were analyzed using the GraphPad Prism program.
Measurements of ^35S-GTPγS Binding: Membranes (1 to 10 μg protein) prepared as described above, were incubated in 96-well Scintiplates (PerkinElmer) with test compounds diluted in DMSO, in 180 μl of 20 mM HEPES, pH 7.4, 10 mM MgCl2, 2 μg/well Saponin, 0.2% fatty acid free BSA (Assay buffer), 140 mM NaCl and 1.7 μM GDP. The assay was initiated with the addition of 20 μl of 1.5 nM [35S]-GTPγS (1100 Ci/mmol; GE Healthcare) in assay buffer. After 60 min incubation at 30° C. on a shaker, plates were centrifuged for 10 min at 2000 RPM. Supernatant was discarded and membrane bound radioactivity was measured on a PerkinElmer 1450 MicroBeta counter. Triplicate samples were averaged and expressed as % response relative to S1P activation in absence of compound (n=2).

T1 sequence (P21453 whole entry, species assumed): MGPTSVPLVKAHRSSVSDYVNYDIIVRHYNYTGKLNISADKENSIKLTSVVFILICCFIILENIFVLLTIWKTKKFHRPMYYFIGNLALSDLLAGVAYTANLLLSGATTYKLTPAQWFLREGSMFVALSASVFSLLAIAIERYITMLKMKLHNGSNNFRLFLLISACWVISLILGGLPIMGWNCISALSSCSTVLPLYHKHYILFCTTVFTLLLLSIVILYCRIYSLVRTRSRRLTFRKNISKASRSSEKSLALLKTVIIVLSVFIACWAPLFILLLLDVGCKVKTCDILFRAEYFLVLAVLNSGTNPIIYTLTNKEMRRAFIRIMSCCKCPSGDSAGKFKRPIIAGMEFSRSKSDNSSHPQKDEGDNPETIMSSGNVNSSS

Compound | EC50
COCCNCc1cccc(-c2noc(-c3ccc(-c4ccccc4C)c(COC)c3)n2)c1 [Example 188, 2-methoxy-N-(3-{5-[2-(methoxymethyl)-2′-methylbiphenyl-4-yl]-1,2,4-oxadiazol-3-yl}benzyl)ethanamine, Hydrochloride salt] | 4 nM
CCOC(=O)C1(NC(=O)c2cccc(-c3noc(-c4ccc(-c5ccccc5C)c(COC)c4)n3)c2)CC1 [Example 131, Ethyl 1-[(3-{5-[2-(methoxymethyl)-2′-methylbiphenyl-4-yl]-1,2,4-oxadiazol-3-yl}benzoyl)amino]cyclopropanecarboxylate] | 35 nM
COCc1cc(-c2nc(-c3ccc(C(=O)NC(C)(C)C(=O)OC)c(F)c3)no2)ccc1-c1ccccc1C [Example 128, Methyl N-(2-fluoro-4-{5-[2-(methoxymethyl)-2′-methylbiphenyl-4-yl]-1,2,4-oxadiazol-3-yl}benzoyl)-2-methylalaninate] | 154 nM
Cc1ccccc1-c1ccc(-c2nc(-c3ccc(C(=O)O)c(F)c3)no2)cc1 [Example 5, 2-fluoro-4-[5-(2′-methylbiphenyl-4-yl)-1,2,4-oxadiazol-3-yl]benzoic acid] | 5140 nM
C#CCOc1ncc(-c2nc(-c3ccc(OCC(=O)O)c(F)c3)no2)cc1Cl [Example 51, (4-{5-[5-chloro-6-(prop-2-yn-1-yloxy)pyridin-3-yl]-1,2,4-oxadiazol-3-yl}-2-fluorophenoxy)acetic acid] | 2020 nM
CC(=O)Nc1cc(-c2nc(-c3ccc(C(=O)O)c(F)c3)no2)ccc1N1CCCCC1C (stereo not drawn) [Example 65, 4-{5-[3-(acetylamino)-4-(2-methylpiperidin-1-yl)phenyl]-1,2,4-oxadiazol-3-yl}-2-fluorobenzoic acid] | 10400 nM
CC1CCCCN1c1ccc(-c2nc(-c3ccc(S(N)(=O)=O)cc3)no2)cc1C(F)(F)F (stereo not drawn) [Example 38, 4-{5-[4-(2-methylpiperidin-1-yl)-3-(trifluoromethyl)phenyl]-1,2,4-oxadiazol-3-yl}benzenesulfonamide] | 1.5 nM
Cc1ccccc1-c1ccc(-c2nc(-c3ccc(C(=O)O)c(F)c3)no2)cc1COCC(C)C [Example 60, 2-fluoro-4-{5-[2-(isobutoxymethyl)-2′-methylbiphenyl-4-yl]-1,2,4-oxadiazol-3-yl}benzoic acid] | 3700 nM
COCc1cc(-c2nc(-c3ccc(C(=O)O)c(F)c3)no2)ccc1-c1ccccc1Cl [Example 98, 4-{5-[2′-chloro-2-(methoxymethyl)biphenyl-4-yl]-1,2,4-oxadiazol-3-yl}-2-fluorobenzoic acid] | 67 nM
COCc1cc(-c2nc(-c3cccc(C(=O)NCCC(=O)O)c3)no2)ccc1-c1ccccc1C [Example 135, N-(3-{5-[2-(methoxymethyl)-2′-methylbiphenyl-4-yl]-1,2,4-oxadiazol-3-yl}benzoyl)-beta-alanine] | 7.8 nM
Cc1cc(-c2nc(-c3ccc(C(=O)O)c(F)c3)no2)ccc1N1CCCCC1 [Example 16, 2-fluoro-4-[5-(3-methyl-4-piperidin-1-ylphenyl)-1,2,4-oxadiazol-3-yl]benzoic acid] | 2060 nM
COCc1cc(-c2nc(-c3ccc(C(=O)NCCCC(=O)OC)c(F)c3)no2)ccc1-c1ccccc1C [Example 126, Methyl 4-[(2-fluoro-4-{5-[2-(methoxymethyl)-2′-methylbiphenyl-4-yl]-1,2,4-oxadiazol-3-yl}benzoyl)amino]butanoate] | 35 nM
COCc1cc(-c2nc(-c3ccc(Cl)c(C(=O)O)c3)no2)ccc1-c1ccccc1C [Example 108, 2-chloro-5-{5-[2-(methoxymethyl)-2′-methylbiphenyl-4-yl]-1,2,4-oxadiazol-3-yl}benzoic acid] | 163 nM
COCc1cc(-c2nc(-c3cccc(C(=O)N(C)CC(=O)O)c3)no2)ccc1-c1ccccc1C [Example 138, N-(3-{5-[2-(methoxymethyl)-2′-methylbiphenyl-4-yl]-1,2,4-oxadiazol-3-yl}benzoyl)-N-methylglycine] | 48.6 nM
COCCCc1cc(-c2nc(-c3ccc(C(=O)O)c(F)c3)no2)ccc1-c1ccccc1C [Example 100, 2-fluoro-4-{5-[2-(3-methoxypropyl)-2′-methylbiphenyl-4-yl]-1,2,4-oxadiazol-3-yl}benzoic acid] | 538 nM
COCc1cc(-c2nc(-c3cccc(C(=O)NCC(=O)O)c3)no2)ccc1-c1ccccc1C [Example 134, N-(3-{5-[2-(methoxymethyl)-2′-methylbiphenyl-4-yl]-1,2,4-oxadiazol-3-yl}benzoyl)glycine] | 5.1 nM
Cc1ccccc1-c1ccc(-c2nc(-c3ccc(C(=O)O)c(F)c3)no2)cc1OC(C)C [Example 101, 2-fluoro-4-[5-(2-isopropoxy-2′-methylbiphenyl-4-yl)-1,2,4-oxadiazol-3-yl]benzoic acid] | 233 nM
COc1cc(-c2nc(-c3ccc(S(N)(=O)=O)cc3)no2)ccc1-c1cscc1C [Example 39, 4-{5-[3-methoxy-4-(4-methyl-3-thienyl)phenyl]-1,2,4-oxadiazol-3-yl}benzenesulfonamide] | 2.9 nM

The remaining compounds from weak to strong by EC50, led by results:

EC50 | Compound
14200 nM | Cc1cc(-c2nc(-c3ccc(C(=O)O)c(F)c3)no2)ccc1-c1c(C)noc1C [Example 25, 4-{5-[4-(3,5-dimethylisoxazol-4-yl)-3-methylphenyl]-1,2,4-oxadiazol-3-yl}-2-fluorobenzoic acid]
8510 nM | CCC(=O)Nc1cc(-c2nc(-c3ccc(C(=O)O)c(F)c3)no2)ccc1N1CCCCC1C (stereo not drawn) [Example 72, 2-fluoro-4-{5-[4-(2-methylpiperidin-1-yl)-3-(propionylamino)phenyl]-1,2,4-oxadiazol-3-yl}benzoic acid]
4640 nM | Cc1ccccc1-c1ccc(-c2nc(-c3ccc(C(=O)O)c(Cl)c3)no2)cc1CS(C)(=O)=O [Example 88, 2-chloro-4-(5-{2′-methyl-2-[(methylsulfonyl)methyl]biphenyl-4-yl}-1,2,4-oxadiazol-3-yl)benzoic acid]
2930 nM | Cc1ccccc1-c1ccc(-c2nc(-c3ccc(C(=O)O)c(F)c3)no2)cc1CO [Example 58, 2-fluoro-4-{5-[2-(hydroxymethyl)-2′-methylbiphenyl-4-yl]-1,2,4-oxadiazol-3-yl}benzoic acid]
2400 nM | Cc1cc(-c2nc(-c3ccc(C(=O)O)c(F)c3)no2)ccc1-c1ccccc1-c1ccccc1 [Example 31, 2-fluoro-4-[5-(2-methyl-1,1′:2′,1″-terphenyl-4-yl)-1,2,4-oxadiazol-3-yl]benzoic acid]
1580 nM | COCc1cc(-c2nc(-c3ccc(C(=O)O)c(F)c3)no2)ccc1-c1cccc(OC)c1OC [Example 82, 4-{5-[2′,3′-dimethoxy-2-(methoxymethyl)biphenyl-4-yl]-1,2,4-oxadiazol-3-yl}-2-fluorobenzoic acid]
1450 nM | Cc1cc(-c2nc(-c3ccc(O)c(C(=O)O)c3)no2)ccc1-c1cscc1C [Example 44, 2-hydroxy-5-{5-[3-methyl-4-(4-methyl-3-thienyl)phenyl]-1,2,4-oxadiazol-3-yl}benzoic acid]
460 nM | COCc1cc(-c2nc(-c3ccc(C(=O)O)c(F)c3)no2)ccc1-c1cc(F)ccc1OC [Example 89, 2-fluoro-4-{5-[5′-fluoro-2′-methoxy-2-(methoxymethyl)biphenyl-4-yl]-1,2,4-oxadiazol-3-yl}benzoic acid]
103 nM | Cc1ccccc1-c1ccc(-c2nc(-c3ccc(C(=O)O)c(F)c3)no2)cc1OCC1CC1 [Example 105, 4-{5-[2-(cyclopropylmethoxy)-2′-methylbiphenyl-4-yl]-1,2,4-oxadiazol-3-yl}-2-fluorobenzoic acid]
26 nM | CCc1nnn(CCNC(=O)c2ccc(-c3noc(-c4ccc(-c5ccccc5C)c(COC)c4)n3)cc2F)n1 [Example 180, N-[2-(5-ethyl-2H-tetrazol-2-yl)ethyl]-2-fluoro-4-{5-[2-(methoxymethyl)-2′-methylbiphenyl-4-yl]-1,2,4-oxadiazol-3-yl}benzamide]
2.9 nM | COCc1cc(-c2nc(-c3cccc(C(=O)NCCC(=O)OC)c3)no2)ccc1-c1ccccc1C [Example 132, Methyl N-(3-{5-[2-(methoxymethyl)-2′-methylbiphenyl-4-yl]-1,2,4-oxadiazol-3-yl}benzoyl)-beta-alaninate]
1.8 nM | COCc1cc(-c2nc(-c3cccc(COCCO)c3)no2)ccc1-c1ccccc1C [Example 193, 2-[(3-{5-[2-(methoxymethyl)-2′-methylbiphenyl-4-yl]-1,2,4-oxadiazol-3-yl}benzyl)oxy]ethanol]
